Laboratory results published in patent US20260345605A1, “THERAPEUTIC AGENTS FOR HEART FAILURE” (Ottawa Hospital Research Institute, priority 2023, published 2026).

Legend:
[1] = system: neonatal rat ventricular cardiomyocytes; experiment: Calcium transients (Fura2-AM) in neonatal rat ventricular cardiomyocytes; assay type: cell-based; settings: for contractility / contractile function: inferred from peak calcium transient, AUC and time to peak
Description: Method: Freshly isolated wildtype neonatal rat ventricular cardiomyocytes were plated onto laminin coated glass coverslides, rinsed once and then loaded with 1 μM Fura2-AM (Life Technologies) for 15 min at 37 °C. After washing the cells thrice with Tyrode solution, measuring chambers were transferred onto a Nikon Eclipse TE2000-U microscope equipped with a fluorescence detection system (IonOptix). Ca^2+ transient values were recorded according to the corresponding FRET experiments. F340/F380 values in Fura2-AM experiments were calculated from the ratios of 510 nm emission light measured at 340 and 380 nm excitations.

[2] = system: iPS cell-derived cardiomyocytes (iCell Cardiomyocytes); experiment: Secondary screening: morphometric analysis of iCell Cardiomyocytes; assay type: cell-based, human
Source text: A library of 800 small molecule compounds that can stimulate favorable cardiac adaptation in primary neonatal rat ventricular myocytes (NRVM) was screened. To identify the beneficial modifiers of hypertrophy, the Cellomics Arrayscan High Throughput Screening platform was employed to quantify morphometric features such as, for example, length, width, and length to width ratio from images acquired using a 10× lens for DAPI-labeled nuclei and CY3 labeled α actinin stained cardiomyocytes in a 96 well format. The lead compound was also screened in iPSC derived cardiomyocytes as a part of secondary screening as it offers a physiologically relevant human cell-based model.
(§1) A secondary screening was performed with 10 drugs identified from primary screening for their ability to induce physiological remodeling using morphometric analysis and measuring the levels of B-type natriuretic peptide (BNP), as a surrogate indicator of the hypertrophic response using ELISA. The compounds were selected based on the highly enriched targets identified in the drug set enrichment analysis with a high Z score. Cryopreserved iPS cell-derived cardiomyocytes (“iCell Cardiomyocytes”) obtained from Cellular Dynamics International (CDI, Madison, WI) were used as a cell model to perform the screening.
The cells were plated at a density of 2.5×10^4 cells onto 25 mm diameter fibronectin coated glass coverslips in plating media for 48 hours. The media was replaced with Supplemented William's E (SWE) medium (SWE) media supplemented with cocktail containing penicillin-streptomycin, ITS+(insulin, transferrin, selenium complex, BSA, and linoleic acid), GlutaMAX™, and HEPES (Primary Hepatocyte Maintenance Supplements-GIBCO) for 48 hours. The cells were treated with controls (CT1-40 ng/mL, PE-100 uM) and drugs (AZD1152-HQPA, LY283519) at varying concentrations (2.5, 1, 0.5, and 0.25 uM) for 24 hours.
Post treatments, the cells were washed, fixed and treated with primary antibody, secondary antibody similar to the protocol of Example 3. The effect on the morphometric parameters was assessed using Cellomics Arrayscan Vti HCS reader. The Image acquisition was performed using the Zeiss AxioVision SE64 Imaging software and analyzed using the ImageJ2 software.
iCell cardiomyocytes were seeded at a density of 10,000 cells per well in a 96 well plate format. The cells were maintained as in Example 3 and were treated with controls (hCT1, PE) and drugs (AZD1152-HQPA, LY283519) at four different concentrations for 24 hours. The cells were then fixed and stained with a Actinin for cardiomyocytes followed by nuclear staining with DAPI. The plates were analyzed in Cellomics Arrayscan Vti HCS reader to assess morphometric changes following treatment.

[3] = system: NT Pro-BNP (iCell Cardiomyocyte); experiment: NT Pro-BNP ELISA in iCell Cardiomyocyte supernatants; assay type: cell-based, human; settings: 24 hour; for Mean NT Pro-BNP levels: iCell Cardiomyocyte, UT 2407.521; for Pro-NT BNP levels compared to UT and CT1 treated cells: iCell cardiomyocytes
Description: as §1
Pro-NT BNP levels in the culture media were measured following the 24 hour treatment using the Human NT Pro-BNP DuoSet ELISA kit (R&D Systems, Minnesota USA) as per the manufacturer's instruction. […] The plates were read on BMG BioTek Molecular Devices SpectraMax Microplate Reader at 450 nm to obtain the optical density followed by reading at 540 nm for wavelength correction.
Protein levels were identified by plotting a 4 parametric logistic regression curve using the standards provided with the kit.

[4] = system: phenylephrine induced left ventricular hypertrophy; experiment: Phenylephrine-induced left ventricular hypertrophy rat model: heart weight and echocardiography; assay type: in vivo, Sprague Dawley rat
Description: (§2) Animal Model Preparation. Sprague Dawley rats were continuously treated with phenylephrine (PE), an α-adrenergic agonist that causes vasoconstriction leading to increased afterload and decreased ventricular function, to create a left-ventricular dysfunction animal model. […] For chronic infusion of phenylephrine, Alzet® mini-osmotic pumps (2002, Durect® Corp) containing Phenylephrine (PE) (10 mg/kg/day) or PBS vehicle were surgically implanted dorsally and subcutaneously in each Sprague Dawley rat under isoflurane anaesthesia. The animals were allowed to develop left ventricular hypertrophy for 2 weeks following the osmotic pump implantation.
(§3) Echocardiography was performed, the animals were sacrificed at 3 weeks endpoint and the blood and tissue were harvested for further analysis.

[5] = system: cardiac angiogenesis (CD31); experiment: Cardiac angiogenesis by CD31 staining in PE rat model; assay type: in vivo, Sprague Dawley rat
Description: as §2, §3
The rat model was prepared as described in Example 12, and the cardiac tissue harvested at the end of the 3 weeks was prepared for CD31 Staining, which is a histological technique used to visualize and assess angiogenesis in cardiac tissue.

cardiomyocytes (NRVMs) = experiment: Oxygen consumption rate of cardiomyocytes (Seahorse Mito Stress Test); assay type: cell-based, neonatal rat; settings: 24 h treatment; vs untreated control; FIG. 12
Description: OCR detection of cardiomyocytes was conducted with the Seahorse Xfe 24 analyzer (Agilent, Santa Clara, USA). Cardiomyocytes were seeded at a density of 8×10^4/well in a special Seahorse 24-well plate (102342-100, Seahorse). After treating with hCT1, PE and drug for 24 h, the medium was replaced with XF medium containing 10 mM D-(+)-glucose (G7021, Sigma-Aldrich), and 1 mM sodium pyruvate (11360070, Thermo Fisher). The plates were placed in a CO2-free 37 °C incubator for an hour before the measurement. A Seahorse XF Cell Mito Stress Test Kit (103015-100, Seahorse) was used for detection. The basal respiration of the NRVMs was detected, and ATP-linked OCR was analyzed after treatment with 1 μM oligomycin (ATP synthase inhibitor). Then, the uncoupling agent carbonyl [COMPOUND LEFT OUT] 4-(trifluoromethoxy) phenylhydrazone (FCCP) 0.5 μM was injected to detect maximal respiration. Finally, rotenone and antimycin A (AR) were used to abolish mitochondrial respiration by inhibiting complexes I and III, respectively.

[6] = systole and diastole, PE compared to control and LY2835219 group
[7] = LY2835219 alone and in rats subjected to phenylephrine
[8] = PE treated rats, 3 weeks LY2835219 75 mg/kg/day oral

## CNC[C@H](O)c1cccc(O)c1 [PE, phenylephrine]
[1]; compared to control, FIG. 11
  area under the curve (AUC) of calcium transient: much higher AUC
  calcium transient levels: aberrant increase calcium transient levels
  time to peak calcium transient: decreased time to peak calcium transient
[1]
  contractility / contractile function: defective contractile function of cardiomyocytes
[2]; 24 h, 100 µM
  Mean Cardiomyocyte Length: 191 µm
[3]; control PE
  Mean NT Pro-BNP levels: 3236.015 pg/mL
[3]
  Pro-NT BNP levels compared to UT and CT1 treated cells: significantly elevated levels
[4]; PE 10 mg/kg/day, compared to sham (PBS), LY2835219 alone, and PE 2 weeks followed by 3 weeks LY2835219
  Heart Weight/Body Weight ratio: significantly increased
[4]; PE treated group compared to control and drug treatment group, FIG. 14
  heart size (whole heart image): enlarged
[4]; PE treated rats, after 2 weeks
  cardiac output: decreased
  ejection fraction: decreased
  percentage fractional shortening: decreased
  stroke volume: decreased
[4]; PE treatment group
  left ventricular internal diameter: reduced
[4]; [6]
  thickness of left ventricular anterior wall: increased thickness
  thickness of left ventricular posterior wall: increased thickness
  thickness of septal wall: increased thickness
[5]; PE, compared to control sham animals
  CD31 staining: significantly decreased CD31 staining
Cardiomyocytes (NRVMs)
  oxygen consumption rate (OCR): reduced oxygen consumption rate

## CCN1CCN(Cc2ccc(Nc3ncc(F)c(-c4cc(F)c5nc(C)n(C(C)C)c5c4)n3)nc2)CC1 [LY2835219]
[1]; compared to control, FIG. 11
  area under the curve (AUC) of calcium transient: increased AUC compared to control
  calcium transient levels: increase in calcium transient levels compared to control
[1]
  contractility / contractile function: improved contractility by modest increase in peak calcium transient levels and AUC with modest decrease in time to attain those peak levels
[2]; iCell Cardiomyocyte, drug 0.25 μm, 24 hours, UT 213.01323
  Mean Cardiomyocyte Length: 221 µm
[2]; iCell Cardiomyocyte, drug 0.5 μm, 24 hours, UT 213.01323
  Mean Cardiomyocyte Length: 239 µm
[2]; iCell Cardiomyocyte, drug 1 μm, 24 hours, UT 213.01323
  Mean Cardiomyocyte Length: 242 µm
[2]; iCell Cardiomyocyte, drug 2.5 μm, 24 hours, UT 213.01323
  Mean Cardiomyocyte Length: 245 µm
[2]; iCell cardiomyocyte, 1 uM, FIG. 4A
  Eccentric cardiac remodeling: Eccentric cardiac remodeling was observed
[2]; iCell cardiomyocytes on coverslips, 24 hours
  cardiomyocyte length compared with CT1 treated cells: comparable cardiomyocyte length
[2]; iCell cardiomyocytes, 96 well, four concentrations, 24 hours
  length in iCell cardiomyocyte compared to hCT1: increased length in iCell cardiomyocyte comparable to length induced by hCT1
[3]; drug 0.25 μm
  Mean NT Pro-BNP levels: 1232.484 pg/mL
[3]; drug 0.5 μm
  Mean NT Pro-BNP levels: 1226.226 pg/mL
[3]; drug 2.5 μm
  Mean NT Pro-BNP levels: 1747.475 pg/mL
[3]
  Pro-NT BNP levels compared to UT and CT1 treated cells: comparable and/or reduced BNP levels
[4]; LY2835219 75 mg/kg/day oral, 3 weeks
  effect in phenylephrine induced left ventricular hypertrophy: anti-hypertrophic effect
[4]; [7]
  cardiac output: improved
  ejection fraction: improved
  fractional shortening: improved
  stroke volume: improved
[4]; PE 2 weeks followed by LY2835219 3 weeks, 75 mg/kg/day oral
  PE effect on left ventricular internal diameter: reversed
[4]; PE treated rats subjected to LY2835219 for 3 weeks, compared with control rats and PE treated rats
  cardiac function (ejection fraction, fractional shortening, stroke volume, cardiac output): significantly enhanced cardiac function
[4]; [8]
  PE effect on thickness of left ventricular anterior wall: reversed
  PE effect on thickness of left ventricular posterior wall: reversed
  PE effect on thickness of septal wall: reversed
[5]; LY2835219 in PE treated animals
  cardiac angiogenesis: improve angiogenesis
[5]; LY2835219 treatment
  cardiac angiogenesis: increased angiogenesis
Cardiomyocytes (NRVMs)
  oxygen consumption rate (OCR): increase the rate of oxygen consumption
